{"source": "patent US20250136619A1", "about": "“HETEROBIFUNCTIONAL COMPOUNDS AND THEIR USE IN TREATING DISEASE” (HALDA THERAPEUTICS OPCO, INC., priority 2021, published 2025)", "key": {"BTK": {"biological_target": "BTK (Homo sapiens (Human), UniProt Q06187)", "sequence (Q06187 whole entry)": "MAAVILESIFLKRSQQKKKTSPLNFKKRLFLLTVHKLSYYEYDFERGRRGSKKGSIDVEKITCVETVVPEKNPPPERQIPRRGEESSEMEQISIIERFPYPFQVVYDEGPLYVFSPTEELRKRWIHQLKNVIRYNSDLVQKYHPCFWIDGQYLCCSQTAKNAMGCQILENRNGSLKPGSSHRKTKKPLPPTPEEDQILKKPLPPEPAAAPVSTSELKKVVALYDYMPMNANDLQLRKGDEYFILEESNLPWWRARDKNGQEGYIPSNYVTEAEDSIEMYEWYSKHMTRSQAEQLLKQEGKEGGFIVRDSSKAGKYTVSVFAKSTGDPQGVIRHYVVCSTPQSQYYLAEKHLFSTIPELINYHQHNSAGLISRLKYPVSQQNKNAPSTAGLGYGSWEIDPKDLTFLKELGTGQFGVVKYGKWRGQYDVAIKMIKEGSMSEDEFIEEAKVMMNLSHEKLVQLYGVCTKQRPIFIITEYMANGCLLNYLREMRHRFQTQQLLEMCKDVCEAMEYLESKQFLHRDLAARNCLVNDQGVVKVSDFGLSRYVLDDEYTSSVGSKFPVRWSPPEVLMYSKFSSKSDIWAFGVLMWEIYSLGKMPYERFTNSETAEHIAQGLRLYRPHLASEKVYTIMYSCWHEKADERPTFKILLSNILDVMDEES", "test": "KdELECT assay for binding affinity to BTK", "description": "(§1) Compounds were tested using a KdELECT assay. Kinase-tagged T7 phage strains were prepared in an E. coli host derived from the BL21 strain. E. coli were grown to log-phase and infected with T7 phage and incubated with shaking at 32° C. until lysis. The lysates were centrifuged and filtered to remove cell debris. The remaining kinases were produced in HEK-293 cells and subsequently tagged with DNA for qPCR detection. Streptavidin-coated magnetic beads were treated with biotinylated small molecule ligands for 30 minutes at room temperature to generate affinity resins for kinase assays. The liganded beads were blocked with excess biotin and washed with blocking buffer (SeaBlock (Pierce), 1% BSA, 0.05% Tween 20, 1 mM DTT) to remove unbound ligand and to reduce non-specific binding. Binding reactions were assembled by combining kinases, liganded affinity beads, and test compounds in 1× binding buffer (20% SeaBlock, 0.17×PBS, 0.05% Tween 20, 6 mM DTT). Test compounds were prepared as 111X stocks in 100% DMSO. Kd values were determined using an 11-point 3-fold compound dilution series with three DMSO control points. All compounds for Kd measurements are distributed by acoustic transfer (non-contact dispensing) in 100% DMSO. The compounds were then diluted directly into the assays such that the final concentration of DMSO was 0.9%. All reactions performed in polypropylene 384-well plate. Each was a final volume of 0.02 mL. The assay plates were incubated at room temperature with shaking for 1 hour and the affinity beads were washed with wash buffer (1×PBS, 0.05% Tween 20). The beads were then re-suspended in elution buffer (1×PBS, 0.05% Tween 20, 0.5 μM nonbiotinylated affinity ligand) and incubated at room temperature with shaking for 30 minutes. The kinase concentration in the eluates was measured by qPCR."}, "CDK9": {"biological_target": "CDK9 (Homo sapiens (Human), UniProt P50750)", "sequence (P50750 whole entry)": "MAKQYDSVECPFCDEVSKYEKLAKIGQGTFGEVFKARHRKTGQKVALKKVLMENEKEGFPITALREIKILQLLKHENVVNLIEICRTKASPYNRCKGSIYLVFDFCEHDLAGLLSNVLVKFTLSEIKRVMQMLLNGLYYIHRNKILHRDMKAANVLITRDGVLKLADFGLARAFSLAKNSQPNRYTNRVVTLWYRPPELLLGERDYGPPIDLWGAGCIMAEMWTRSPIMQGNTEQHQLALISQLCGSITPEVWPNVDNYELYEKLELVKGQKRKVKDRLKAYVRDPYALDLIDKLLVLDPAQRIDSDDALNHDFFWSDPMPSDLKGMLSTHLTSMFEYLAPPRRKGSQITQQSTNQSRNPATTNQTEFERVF", "test": "KdELECT assay for binding affinity to CDK9", "description": "as §1, with “KdELECT.” for “KdELECT assay.”, “1×binding” for “1× binding”"}, "HeLa cells": {"tested_on": "HeLa cells", "test": "Cellular growth inhibition assay (CellTiter-Glo), HeLa cells", "format": "cell-based", "settings": "read-out: CTG HELA GI50", "description": "(§2) HEK293 and HeLa cells were cultured in DMEM medium supplemented with 10% fetal bovine serum and 1% Penn/Strep. Cells were seeded in white 384-well plates at 500 cells/well in […] complete medium. Following seeding, plates were spun at 300×g for three minutes and cultured at 37° C. with 5% CO2 in a humidified tissue culture incubator.\n(§3) After 24 hours, compounds were titrated in 100% DMSO and diluted in complete cell culture medium. […] of compound/media mixture was added to cells to bring total volume in well to […]. DMSO alone was used as a negative control. Plates were then spun at 300×g for three minutes and stored at 37° C. with 5% CO2 for three days.\n(§4) On Day 0 and Day 3 of compound treatment, cell viability was quantified with CellTiter-Glo 2.0 reagent (Promega). After equilibrating microplates at room temperature for 30 minutes, 25 μL CellTiter-Glo 2.0 reagent was dispensed into each well to bring total volume to […]. Plates were mixed on shaker for 2 minutes at 500 rpm, followed by a 10-minute incubation at room temperature. Following a quick spin, luminescence readings were measured with an En Vision Plate Reader. Data was normalized to DMSO treated Day 0 and Day 3 readings. A four-parameter non-linear regression curve fit was applied to dose-response data in GraphPad Prism data analysis software to determine the half maximal growth inhibitory concentration (GI50) for each compound."}, "HEK293 cells": {"tested_on": "HEK293 cells", "test": "Cellular growth inhibition assay (CellTiter-Glo), HEK293 cells", "format": "cell-based", "settings": "read-out: CTG HEK293 GI50", "description": "as §2, §3, §4"}, "[1]": {"settings": "Homo sapiens, 72 h, HeLa cells, three days of compound treatment, CellTiter-Glo 2.0"}, "[2]": {"settings": "Homo sapiens, 72 h, HEK293 cells, three days of compound treatment, CellTiter-Glo 2.0"}, "[3]": {"settings": "HeLa cells, three days of compound treatment, CellTiter-Glo 2.0"}, "[4]": {"settings": "HEK293 cells, three days of compound treatment, CellTiter-Glo 2.0"}}, "note": "Like-named read-outs stand apart in the source and are kept apart here."}
{"smiles": "NC(=O)c1c(F)cccc1Nc1nc(Nc2ccc(S(=O)(=O)NCCCCCCCC/C=C/C(=O)N3CCC[C@@H](n4nc(-c5ccc(Oc6ccccc6)cc5)c5c(N)ncnc54)C3)cc2)ncc1Br", "note": "[Compound I-17]", "values": [{"measurement": "Kd", "setting": "BTK", "value": "500 to 2500", "unit": "nM"}]}
{"smiles": "C=CC(=O)N1CCN([C@@H](CC2CC2)c2ccc([C@H](C)Nc3ncc4c(n3)N(CCOCCOCCn3cc(CNc5cc(N6CCCC[C@H]6CCO)nc6c(CC)cnn56)ccc3=O)C(=O)OC4)cc2)CC1", "note": "[Compound I-56]", "values": [{"measurement": "Kd", "setting": "CDK9", "value": "50 to 500", "unit": "nM"}]}
{"smiles": "C=CC(=O)N1CCN([C@@H](CC2CC2)c2ccc([C@H](C)Nc3ncc4c(n3)N(CCOCCOCCOCCOCCOCCOCCn3cc(CNc5cc(N6CCCC[C@H]6CCO)nc6c(CC)cnn56)ccc3=O)C(=O)OC4)cc2)CC1", "note": "[Compound I-87]", "values": [{"measurement": "Kd", "setting": "CDK9", "value": "< 50", "unit": "nM"}]}
{"smiles": "CC[C@@H]1C(=O)N(C)c2cnc(Nc3ccc(C(=O)NCCOCCOCCOCCOCCOCCOCCOC/C=C/C(=O)N4CCC[C@@H](n5nc(-c6ccc(Oc7ccccc7)cc6)c6c(N)ncnc65)C4)cc3OC)nc2N1C1CCCC1", "note": "[Compound I-39, N-[2-[2-[2-[2-[2-[2-[2-[(E)-4-[(3R)-3-[4-amino-3-(4-phenoxyphenyl)pyrazolo[3,4-d]pyrimidin-1-yl]-1-piperidyl]-4-oxo-but-2-enoxy]ethoxy]ethoxy]ethoxy]ethoxy]ethoxy]ethoxy]ethyl]-4-[[(7R)-8-cyclopentyl-7-ethyl-5-methyl-6-oxo-7H-pteridin-2-yl]amino]-3-methoxy-benzamide]", "values": [{"measurement": "Kd", "setting": "BTK", "value": "< 50", "unit": "nM"}]}
{"smiles": "C=CC(=O)N1CCN([C@@H](CC2CC2)c2ccc([C@H](C)Nc3ncc4c(n3)N(CCOCCOCCOCCOCCOCCOCCOc3ccc(CNc5cc(N6CCCC[C@H]6CCO)nc6c(CC)cnn56)cn3)C(=O)OC4)cc2)CC1", "note": "[Compound I-83]", "values": [{"measurement": "Kd", "setting": "CDK9", "value": "< 50", "unit": "nM"}]}
{"smiles": "C=CC(=O)N1CCN([C@@H](CC2CC2)c2ccc([C@H](C)Nc3ncc4c(n3)N(CCOCCOCCOCCOCCOCCOCCNS(=O)(=O)c3ccc(Nc5ncc(Br)c(Nc6cccc(F)c6C(N)=O)n5)cc3)C(=O)OC4)cc2)CC1", "note": "[Compound I-86, 2-[[5-bromo-2-[4-[2-[2-[2-[2-[2-[2-[2-[7-[[(1S)-1-[4-[(1S)-2-cyclopropyl-1-(4-prop-2-enoylpiperazin-1-yl)ethyl]phenyl]ethyl]amino]-2-oxo-4H-pyrimido[4,5-d][1,3]oxazin-1-yl]ethoxy]ethoxy]ethoxy]ethoxy]ethoxy]ethoxy]ethylsulfamoyl]anilino]pyrimidin-4-yl]amino]-6-fluoro-benzamide]", "values": [{"measurement": "Kd", "setting": "CDK9", "value": "500 to 2500", "unit": "nM"}]}
{"smiles": "CCc1cnn2c(NCc3ccc(OCCOCCOCCOCCOCCOCCOCCOCCOCCN(C)C/C=C/C(=O)N4CCC[C@@H](n5nc(-c6ccc(Oc7ccccc7)cc6)c6c(N)ncnc65)C4)nc3)cc(N3CCCC[C@H]3CCO)nc12", "note": "[Compound I-48]", "values": [{"measurement": "GI50", "setting": "HeLa cells; [1]", "value": "1500 to 5000", "unit": "nM"}, {"measurement": "Kd", "setting": "BTK", "value": "< 50", "unit": "nM"}, {"measurement": "GI50", "setting": "HEK293 cells; [2]", "value": "1500 to 5000", "unit": "nM"}]}
{"smiles": "CC[C@@H]1C(=O)N(C)c2cnc(Nc3ccc(C(=O)NCCOCCOCCOC/C=C/C(=O)N4CCC[C@@H](n5nc(-c6ccc(Oc7ccccc7)cc6)c6c(N)ncnc65)C4)cc3OC)nc2N1C1CCCC1", "note": "[Compound I-37, N-[2-[2-[2-[(E)-4-[(3R)-3-[4-amino-3-(4-phenoxyphenyl)pyrazolo[3,4-d]pyrimidin-1-yl]-1-piperidyl]-4-oxo-but-2-enoxy]ethoxy]ethoxy]ethyl]-4-[[(7R)-8-cyclopentyl-7-ethyl-5-methyl-6-oxo-7H-pteridin-2-yl]amino]-3-methoxy-benzamide]", "values": [{"measurement": "Kd", "setting": "BTK", "value": "50 to 500", "unit": "nM"}]}
{"smiles": "CN(OCCOCCOCCOCCOCCOCCOCCOC/C=C/C(=O)N1CCC[C@@H](n2nc(-c3ccc(Oc4ccccc4)cc3)c3c(N)ncnc32)C1)C(=O)N1N=C(c2cc(F)ccc2F)SC1(CCCN)c1ccccc1", "note": "(some centres unmarked) [Compound I-51]", "values": [{"measurement": "GI50", "setting": "HeLa cells; [1]", "value": "500 to 1500", "unit": "nM"}, {"measurement": "Kd", "setting": "BTK", "value": "< 50", "unit": "nM"}, {"measurement": "GI50", "setting": "HEK293 cells; [2]", "value": "1500 to 5000", "unit": "nM"}]}
{"smiles": "CC[C@@H]1C(=O)N(C)c2cnc(Nc3ccc(C(=O)NCCCCCCCCOC/C=C/C(=O)N4CCC[C@@H](n5nc(-c6ccc(Oc7ccccc7)cc6)c6c(N)ncnc65)C4)cc3OC)nc2N1C1CCCC1", "note": "[Compound I-36, N-[8-[(E)-4-[(3R)-3-[4-amino-3-(4-phenoxyphenyl)pyrazolo[3,4-d]pyrimidin-1-yl]-1-piperidyl]-4-oxo-but-2-enoxy]octyl]-4-[[(7R)-8-cyclopentyl-7-ethyl-5-methyl-6-oxo-7H-pteridin-2-yl]amino]-3-methoxy-benzamide]", "values": [{"measurement": "Kd", "setting": "BTK", "value": "50 to 500", "unit": "nM"}]}
{"smiles": "C=CC(=O)N1CCN([C@@H](CC2CC2)c2ccc([C@H](C)Nc3ncc4c(n3)N(CCOCCOCCOc3ccc(CNc5cc(N6CCCC[C@H]6CCO)nc6c(CC)cnn56)cn3)C(=O)OC4)cc2)CC1", "note": "[Compound I-55]", "values": [{"measurement": "Kd", "setting": "CDK9", "value": "50 to 500", "unit": "nM"}]}
{"smiles": "CN(CCNS(=O)(=O)c1cc(F)cc(N(C(=O)[C@@H]2CCC(=O)N2c2cc(C#N)ccn2)[C@@H](C(=O)NC2CC(F)(F)C2)c2ccccc2Cl)c1)C(=O)N1N=C(c2cc(F)ccc2F)SC1(CCCN)c1ccccc1", "note": "(stereo partly drawn) [Compound I-113, 2-(3-aminopropyl)-N-[2-[[3-[[(1R)-1-(2-chlorophenyl)-2-[(3,3-difluorocyclobutyl)amino]-2-oxo-ethyl]-[(2S)-1-(4-cyano-2-pyridyl)-5-oxo-pyrrolidine-2-carbonyl]amino]-5-fluoro-phenyl]sulfonylamino]ethyl]-5-(2,5-difluorophenyl)-N-methyl-2-phenyl-1,3,4-thiadiazole-3-carboxamide]", "values": [{"measurement": "GI50", "setting": "HeLa cells; [1]", "value": "> 5000", "unit": "nM"}, {"measurement": "GI50", "setting": "HEK293 cells; [2]", "value": "> 5000", "unit": "nM"}]}
{"smiles": "CC(C)(C)c1[nH]cnc1/C=c1\\[nH]c(=O)/c(=C/c2ccccc2)n(CCOCCOCC(=O)N2CC(=O)N(c3cc(C#N)ccn3)[C@H](C(=O)N(c3cc(F)cc(F)c3)[C@H](C(=O)NC3CC(F)(F)C3)c3ccccc3Cl)C2)c1=O", "note": "[Compound I-109, (2S)-4-[2-[2-[2-[(2Z,5Z)-2-benzylidene-5-[(5-tert-butyl-1H-imidazol-4-yl)methylene]-3,6-dioxo-piperazin-1-yl]ethoxy]ethoxy]acetyl]-N-[(1S)-1-(2-chlorophenyl)-2-[(3,3difluorocyclobutyl)amino]-2-oxo-ethyl]-1-(4-cyano-2-pyridyl)-N-(3,5-difluorophenyl)-6-oxo-piperazine-2-carboxamide]", "values": [{"measurement": "GI50", "setting": "HeLa cells; Homo sapiens, HeLa, 72 h", "value": "> 5000", "unit": "nM"}, {"measurement": "GI50", "setting": "HEK293 cells; Homo sapiens, HEK293, 72 h", "value": "> 5000", "unit": "nM"}]}
{"smiles": "CCc1cnn2c(NCc3ccc(OCCOCCOCCCc4cc(-c5cnc([C@H](C)Nc6nccc(N7C(=O)OC[C@@H]7[C@H](C)F)n6)cc5C)cc(C(F)(F)F)n4)nc3)cc(N3CCCC[C@H]3CCO)nc12", "note": "[Compound I-99]", "values": [{"measurement": "GI50", "setting": "HeLa cells; [3]", "value": "< 500", "unit": "nM"}, {"measurement": "GI50", "setting": "HEK293 cells; [4]", "value": "< 500", "unit": "nM"}]}
{"smiles": "CCc1cnn2c(NCc3ccc(=O)n(CCOCCOCCOCCOCCNS(=O)(=O)c4cc(F)cc(N(C(=O)[C@@H]5CCC(=O)N5c5cc(C#N)ccn5)C(C(=O)NC5CC(F)(F)C5)c5ccccc5Cl)c4)c3)cc(N3CCCC[C@H]3CCO)nc12", "note": "(some centres unmarked) [Compound I-95]", "values": [{"measurement": "GI50", "setting": "HeLa cells; [3]", "value": "500 to 1500", "unit": "nM"}, {"measurement": "GI50", "setting": "HEK293 cells; [4]", "value": "1500 to 5000", "unit": "nM"}]}
